For orientation: EC50 means the midpoint of the concentration-response curve.

The text below walks through data of patent US10294217B2, “Fluoroindole derivatives as muscarinic M1 receptor positive allosteric modulators” (Suven Life Sciences Limited, priority 2015, dated 2019).

In data set [1] the target is human Muscarinic M1 receptor (Homo sapiens (Human), UniProt P11229). In words: Allosteric potency EC50 for muscarinic M1 receptor (CHO cells, pCRE-Luc reporter). The class given is cell-based. The following applies: luciferase activity, 4 hours. As for the experimental part:
Determination of Allosteric Potency EC50 Values for Muscarinic M1 Receptor:
A stable CHO cell line expressing recombinant human Muscarinic M1 receptor and pCRE-Luc reporter system was used for cell-based assay. The assay offers a non-radioactive based approach to determine binding of a compound to GPCRs. In this specific assay, the level of intracellular cyclic AMP which is modulated by activation or inhibition of the receptor is measured. The recombinant cells harbor luciferase reporter gene under the control of cAMP response element.
The above cells were grown in 96 well clear bottom white plates in Hams F12 medium containing 10% fetal bovine serum (FBS). Prior to the addition of compounds or standard agonist, cells were serum starved overnight. Increasing concentrations of test compounds were added along with EC20 of acetylcholine in OptiMEM medium to the cells. The incubation was continued at 37° C. in CO2 incubator for 4 hours. Medium was removed and cells were washed with phosphate buffered saline. The cells were lysed and luciferase activity was measured in a Luminometer. Luminescence units were plotted against the compound concentrations using Graphpad software. EC50 values of the compounds were defined as the concentration required in stimulating the luciferase activity by 50% in presence of EC20 of acetylcholine and the results are provided in table 1.

The test system of the next data set is sAPPα. Briefly: Estimation of cortical sAPPα levels in rat brain (ELISA). The class given is in vivo, Male Wistar rats. The following applies: i.p.; for sAPPα levels: cortex, 60 minutes after treatment, mean ± SEM (n = 5/group); for Inference: cortical sAPPα levels, 1.0-10.0 mg/kg. As for the experimental part:
Estimation of Cortical sAPPα Levels in Rat Brain
Male Wistar rats (250±45 grams) were randomly divided into different treatment groups (n=5 per group). Control group of rats were administered with intraperitoneal (i.p.) injection of vehicle (99.75% of 0.25% hydroxyethylcellulose HHX+0.25% tween 80 for examples 8 and 22; 5% Pharmasolve+45% propylene glycol+50% polyethylene glycol-400 for example 1). Rats in treatment groups were allocated to one dose of test compound and administered with a single intraperitoneal injection of test compound (dose volume of 2 mL/kg). Rats were sacrificed by cervical dislocation at 60 minutes after treatment. Brains were quickly isolated and the cortex was dissected out at −20° C. The cortex was immediately kept on a dry ice and weighed before being stored at −80° C. until quantification of sAPPα using Enzyme-linked immunosorbent assay (ELISA).
• 1. Protease inhibitor cocktail tablets (complete mini, Make-Roche; 1 tablet for 8 mL) were added to the Tris Buffer Saline (TBS) prior to using the buffer for tissue processing. • 2. Cortical tissues were thawed and homogenized in five volumes of TBS and the solution was centrifuged at 15,000 rpm at 4° C. for 90 minutes. • 3. The supernatant was discarded and homogenized in five volumes of TBS. Samples were centrifuged at 15,000 rpm at 4° C. for 30 minutes. • 4. Supernatant was discarded and precipitate was sonicated in ten volumes of 50 mM Tris buffer (pH: 7.6) containing 6 M of Guanidine-HCl. Sonication was repeated four times with duration of five seconds every time. • 5. Resulting mixture was incubated at the room temperature for 30 minutes and centrifuged at 15,000 rpm at 4° C. for 30 minutes. Supernatant was diluted 100 times with EIA buffer prior to addition in the pre-coated ELISA plates. Measurement of sAPPα by ELISA Kit:
To investigate the role of an acute treatment of test compound on sAPPα levels, the expression of this protein was measured in samples obtained from brain homogenates of treated and untreated rats by employing ELISA assay. The entire procedure was followed as described in the ELISA kit manual (Mouse/Rat sAPPα (highly sensitive) assay kit, Catalog Number: JP27419, Immuno-Biological Laboratories Co. Ltd, Hamburg, Germany).
Statistical analyses were performed using the Graph Pad Prism (Version 4). Results are expressed as Mean±SEM levels of sAPPα expressed as percentage of control values obtained from rats treated with vehicle. Statistical significance after treatment was assessed using One-Way ANOVA followed by Dunnett's post test and the significance level was set below p value less than 0.05 and the results are tabulated in table 7.

A short description of data set [2]: Protein binding assay (HT dialysis), dog matrices. The class given is in vitro ADME. The following applies: Mean ± SEM. As for the experimental part:
Unbound fractions of new chemical entities in plasma, brain homogenate and liver microsomes were determined using high-throughput dialysis (HT dialysis). Briefly, dialysis membranes were soaked in deionized water for 20 minutes and then in deionized water with 30% ethanol for 15 minutes and finally in phosphate buffer until use. Membranes were rinsed in phosphate buffer before assembling. The membranes were layered between teflon bars of dialysis assembly. Stock solutions of test compounds were prepared at 10 mM in DMSO, diluted to 1 mM in acetonitrile and further diluted to 100 μM in mixture of water and acetonitrile (1:1 v/v). Human plasma (pool of 3) was prepared from human blood (3 donors) by centrifuging at 4000 rpm for 10 min at 4° C. Rat and dog blood were obtained on the day of the study and centrifuged to obtain plasma. Rat brains were isolated, cleaned and homogenized with 2 volumes of buffer (3 fold dilution). Liver microsomes were prepared at 0.5 mg/mL in phosphate buffer (100 mM, pH 7.4). The dialysate chambers were loaded with 150 μL of 100 mM phosphate buffer (pH 7.4) in triplicates. The matrix chambers were loaded with 150 μL of the plasma or brain homogenate or microsomal suspension spiked with test compounds at a final concentration of 1 μM. 50 μL of the sample was removed from both the chambers at 0 h. The plate was sealed and incubated at 37° C. for 6 h at 100 rpm. After 6 h, 50 μL of the sample was removed from both the chambers. Equal volumes of buffer or human plasma/microsomal suspension were added to the plasma/microsomal and buffer samples respectively to create identical sample matrices for analysis. The samples were precipitated with 150 μL of acetonitrile containing fluoxetine as an internal standard. All the samples were centrifuged at 10000 rpm for 10 minutes at 4° C.

[3] abbreviates: pH 7.4, Dog liver microsomes 0.5 mg/mL, n = 3, read-out: Fu Microsomes.
Setting [4] is: pH 7.4, Dog plasma, 37° C., n = 3, read-out: Fu Plasma.
[5] abbreviates: in presence of EC20 of acetylcholine, read-out: hM1 PAM EC50.

Where two headings read alike, the source gives them in different places.

As to `Cl.O=C(N[C@H]1CCNC[C@H]1F)c1cn(Cc2ccnc(F)c2)c2c(F)ccc(F)c12` (single isomer, unassigned; isomer-i) [Example 22, Cis-N-(3-Fluoropiperidin-4-yl)-1-(2-fluoropyridin-4-ylmethyl)-4,7-difluoro-1H-indole-3-carboxamide hydrochloride (Isomer-I)], the 50% effective concentration (EC50) in data set [1] (hM1 PAM EC50, in presence of EC20 of acetylcholine) was 1.49 µM. Moreover, the sAPPα levels with sAPPα (1.0 mg/kg) is reported as 143 ± 14 % of vehicle; in the data set with sAPPα (3.0 mg/kg), 164 ± 12 % of vehicle; with sAPPα (10.0 mg/kg) it was 176 ± 10 % of vehicle. The Inference result with sAPPα is “Active”. In addition, the fraction unbound at 6 h, 1 μM is 0.866 ± 0.034 in data set [2] (setting [3]) and 0.31 ± 0.01 in data set [2] (setting [4]).
For `Cn1cc(Cn2cc(C(=O)N[C@H]3CCCC[C@@H]3O)c3c(F)cccc32)cn1` [Example 1, N-[(1S,2S)-2-Hydroxycyclohexyl]-1-(1-methyl-1H-pyrazol-4-ylmethyl)-4-fluoro-1H-indole-3-carboxamide], the EC50 in data set [1] (setting [5]) was determined as 1.26 µM. Also, the sAPPα levels with sAPPα (1.0 mg/kg) is recorded as 155 ± 6 % of vehicle; with sAPPα (3.0 mg/kg), 153 ± 7 % of vehicle; in the data set on sAPPα (10.0 mg/kg), 142 ± 6 % of vehicle. The Inference result in the data set on sAPPα is “Active”. The fraction unbound at 6 h, 1 μM in data set [2] (setting [3]) amounted to 0.982 ± 0.01; in data set [2] (setting [4]), 0.217 ± 0.21.
Consider `O=C(N[C@H]1CCCC[C@@H]1O)c1cn(Cc2ccnc(Cl)c2)c2cccc(F)c12` [Example 2, N-[(1S,2S)-2-Hydroxycyclohexyl]-1-(2-chloropyridin-4-ylmethyl)-4-fluoro-1H-indole-3-carboxamide], for which, in data set [1] (setting [5]), the EC50 stood at 0.681 µM. Besides, the fraction unbound at 6 h, 1 μM in data set [2] (setting [3]) was 0.576 ± 0.079; in data set [2] (setting [4]), 0.087 ± 0.008.
As for `Cn1cc(Cn2cc(C(=O)N[C@H]3CCCC[C@@H]3O)c3c(F)ccc(F)c32)cn1` [Example 5, N-[(1S,2S)-2-Hydroxycyclohexyl]-1-(1-methyl-1H-pyrazol-4-ylmethyl)-4,7-difluoro-1H-indole-3-carboxamide], the fraction unbound at 6 h, 1 μM is 0.746 ± 0.004 in data set [2] (setting [3]) and 0.163 ± 0.02 in data set [2] (setting [4]).
As for `O=C(N[C@H]1CCCC[C@@H]1O)c1cn(Cc2ccnc(F)c2)c2cccc(F)c12` [Example 7, N-[(1S,2S)-2-Hydroxycyclohexyl]-1-(2-fluoropyridin-4-ylmethyl)-4-fluoro-1H-indole-3-carboxamide], in data set [1] (setting [5]), the half-maximal effective concentration (EC50) is 1.36 µM. In addition, the fraction unbound at 6 h, 1 μM turned out to be 0.6 ± 0.03 in data set [2] (setting [3]) and 0.2 ± 0.01 in data set [2] (setting [4]).
Turning to `O=C(N[C@H]1CCCC[C@@H]1O)c1cn(Cc2ccnc(F)c2)c2c(F)ccc(F)c12` [Example 8, N-[(1S,2S)-2-Hydroxycyclohexyl]-1-(2-fluoropyridin-4-ylmethyl)-4,7-difluoro-1H-indole-3-carboxamide], the EC50 in data set [1] (setting [5]) is 0.192 µM. Moreover, the sAPPα levels with sAPPα (1.0 mg/kg) is listed as 120 ± 17 % of vehicle; with sAPPα (3.0 mg/kg), 137 ± 14 % of vehicle; in the data set with sAPPα (10.0 mg/kg), 173 ± 10 % of vehicle. For the same compound, the Inference result in the data set with sAPPα is listed as “Active”. For the same compound, the fraction unbound at 6 h, 1 μM in data set [2] (setting [3]) is 0.679 ± 0.066; in data set [2] (setting [4]), 0.064 ± 0.01.
